The record followed here is patent US9790221B2, “Heteroaryl compounds as IRAK inhibitors and uses thereof” (Merck Patent GmbH, priority 2014, dated 2017).

A word on the IC50: it is the concentration at which inhibition is half-maximal.

Assay [1] concerns the target IRAK1 (His-TEV-IRAK1 (194-712)) (Homo sapiens (Human), UniProt P51617). Put plainly: IRAK1 enzymatic assay. It is filed as biochemical. The gist of the method:
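Compounds ([…] down to 1 nM) were incubated 3 h at 30° C with His-TEV-IRAK1 (194-712, 15 ng/well) and 1 μM [33P]-labelled ATP in 50 mM Hepes pH 7.0, 10 mM MgCl2. After EDTA stop and washing, the retained autophosphorylation signal was measured by scintillation in streptavidin-coated plates.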

For the next assay, the target named is IRAK4 (Homo sapiens (Human), UniProt Q9NWZ3). Nature of the assay: IRAK4 enzymatic assay. It is filed as biochemical. In outline: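 Radiometric streptavidin FlashPlate read: 3 h, 30° C incubation of His-TEV-IRAK4 (20 ng/well), STK1-biotin substrate (300 nM) and ATP (2 μM, [^33P]-labelled) in Hepes pH 7.0, MgCl2 10 mM, MnCl2 5 mM. Compounds from 20 µM down to 1 nM, 2% DMSO controls; reaction quenched with EDTA.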
IRAK4, sequence (Q9NWZ3 whole entry): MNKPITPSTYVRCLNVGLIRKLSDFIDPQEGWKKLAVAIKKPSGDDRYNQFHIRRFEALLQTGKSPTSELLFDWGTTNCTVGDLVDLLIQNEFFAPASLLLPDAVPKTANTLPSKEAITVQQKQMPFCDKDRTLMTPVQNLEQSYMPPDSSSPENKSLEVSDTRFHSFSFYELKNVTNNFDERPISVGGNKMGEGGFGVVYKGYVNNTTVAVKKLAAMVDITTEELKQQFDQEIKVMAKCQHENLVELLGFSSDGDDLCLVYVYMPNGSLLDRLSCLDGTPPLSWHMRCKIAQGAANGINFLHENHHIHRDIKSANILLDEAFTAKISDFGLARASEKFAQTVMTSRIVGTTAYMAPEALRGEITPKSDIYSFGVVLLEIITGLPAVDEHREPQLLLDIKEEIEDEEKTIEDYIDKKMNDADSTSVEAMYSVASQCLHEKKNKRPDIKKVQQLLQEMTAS

Assay [2] concerns TLR7 induced IL-6 secretion in human mononuclear cells (PBMC's). Put plainly: TLR7 induced IL-6 in human PBMC's. It is filed as cell-based. The following applies: read-out: TLR7 induced IL-6 secretion in hPBMC's (IC50). In outline:
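Fresh or frozen healthy-donor PBMCs preincubated 30 min at 37° C. with compound (25 uM to 0.4 nM; vehicle 0.25% DMSO) in RPMI/10% HI-FBS. Stimulated with TLR7 ligand (2 uM) for 16-18 h at 37° C.; supernatant IL-6 measured by AlphaLISA.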

Read-outs that look alike come from different tables or passages of the source.

IRAK1 (His-TEV-IRAK1 (194-712)), sequence (P51617 194-712): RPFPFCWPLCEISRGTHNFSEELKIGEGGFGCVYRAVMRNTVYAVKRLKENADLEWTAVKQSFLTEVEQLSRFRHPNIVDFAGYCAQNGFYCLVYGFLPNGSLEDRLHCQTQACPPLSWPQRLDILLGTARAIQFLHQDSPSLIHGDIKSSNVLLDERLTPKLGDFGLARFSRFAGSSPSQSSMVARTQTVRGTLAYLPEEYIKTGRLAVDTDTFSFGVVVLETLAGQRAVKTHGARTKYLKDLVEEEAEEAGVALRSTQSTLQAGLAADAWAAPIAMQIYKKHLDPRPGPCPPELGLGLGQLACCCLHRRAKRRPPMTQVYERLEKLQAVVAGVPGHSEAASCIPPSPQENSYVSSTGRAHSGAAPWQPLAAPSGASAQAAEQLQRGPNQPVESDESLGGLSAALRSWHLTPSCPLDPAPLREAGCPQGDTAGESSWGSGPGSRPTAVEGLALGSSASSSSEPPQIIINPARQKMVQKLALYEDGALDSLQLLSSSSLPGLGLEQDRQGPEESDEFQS

As for `Cn1cc(-c2cccc(-c3ncc(-c4cnn(C)c4)c(NCC(F)(F)C(F)(F)C(F)(F)F)n3)c2)cn1` [Example 272], the IC50 in assay [1] was 100 to 1000 nM; at IRAK4, below 100 nM; in assay [2], 1000 to 5000 nM.
As for `Cn1cc(-c2cccc(-c3ncc(-c4cnn(C)c4)c(N[C@H]4CC[C@H](O)[C@@H]4O)n3)c2)cn1` [Example 273], the IC50 in assay [1] was 100 to 1000 nM; against IRAK4 it was below 100 nM; in assay [2] (Homo sapiens, PBMC), 100 to 1000 nM.
Regarding `Cn1cc(-c2cccc(-c3ncc(-c4cnn(C)c4)c(NCC(O)C(F)(F)F)n3)c2)cn1` (stereo not drawn) [Example 275], the concentration for half-maximal inhibition (IC50) in assay [1] was 100 to 1000 nM; at IRAK4, below 100 nM; in assay [2] (Homo sapiens, PBMC) it was 100 to 1000 nM.
With `Cn1cc(-c2cccc(-c3ncc(-c4cnn(C)c4)c(N[C@H]4CC[C@H](NS(=O)(=O)C5CC5)CC4)n3)c2)cn1` [Example 276], the IC50 in assay [1] was below 100 nM; against IRAK4 it was below 100 nM; in assay [2] (Homo sapiens, PBMC), 100 to 1000 nM.
Regarding `Cn1cc(-c2cccc(-c3ncc(-c4cnn(C)c4)c(NCCS(N)(=O)=O)n3)c2)cn1` [Example 278], the IC50 in assay [1] is below 100 nM; on IRAK4, below 100 nM; in assay [2] (Homo sapiens, PBMC), 100 to 1000 nM.
For `Cn1cc(-c2cccc(-c3ncc(-c4cnn(C)c4)c(N[C@H]4CC[C@H](C(=O)O)CC4)n3)c2)cn1` [Example 279], the IC50 is above 5000 nM in assay [1]; 100 to 1000 nM against IRAK4; above 5000 nM in assay [2] (Homo sapiens, PBMC).
On to `Cn1cc(-c2cccc(-c3ncc(-c4cnn(C)c4)c(N4CC[C@H](F)[C@@H](O)C4)n3)c2)cn1` [Example 280], for which the IC50 was 100 to 1000 nM in assay [1]; below 100 nM at IRAK4; 1000 to 5000 nM in assay [2] (Homo sapiens, PBMC).
The matching figures for `Cn1cc(-c2cccc(-c3ncc(-c4cnn(C)c4)c(NCCCS(C)(=N)=O)n3)c2)cn1` (stereo not drawn) [Example 282]: 1000 to 5000 nM, 100 to 1000 nM and above 5000 nM.
As to `Cn1cc(-c2cccc(-c3ncc(-c4cnn(C)c4)c(N4C[C@H](N)CC(F)(F)C4)n3)c2)cn1` [Example 283, (R)-5,5-Difluoro-1-{5-(1-methyl-1H-pyrazol-4-yl)-2-[3-(1-methyl-1H-pyrazol-4-yl)-phenyl]-pyrimidin-4-yl}-piperidin-3-ylamine], the IC50 in assay [1] is 1000 to 5000 nM; against IRAK4, 1000 to 5000 nM; in assay [2] (Homo sapiens, PBMC), 1000 to 5000 nM.
Regarding `Cn1cc(-c2cccc(-c3ncc(-c4cnn(C)c4)c(N4C[C@@H](N)CC(F)(F)C4)n3)c2)cn1` [Example 284, (S)-5,5-Difluoro-1-{5-(1-methyl-1H-pyrazol-4-yl)-2-[3-(1-methyl-1H-pyrazol-4-yl)-phenyl]-pyrimidin-4-yl}-piperidin-3-ylamine], the IC50 was 1000 to 5000 nM in assay [1]; below 100 nM on IRAK4; 100 to 1000 nM in assay [2] (Homo sapiens, PBMC).
The matching figures for `Cn1cc(-c2cccc(-c3ncc(-c4cnn(C)c4)c(N[C@@H]4CCCC(F)(F)[C@H]4O)n3)c2)cn1` [Example 287, (1S,6R)-2,2-Difluoro-6-{5-(1-methyl-1H-pyrazol-4-yl)-2-[3-(1-methyl-1H-pyrazol-4-yl)-phenyl]-pyrimidin-4-ylamino}-cyclohexanol]: 100 to 1000 nM, below 100 nM and 1000 to 5000 nM.
On to `Cn1cc(-c2cccc(-c3ncc(-c4cnn(C)c4)c(N[C@H]4CCCC[C@@H](O)[C@H]4O)n3)c2)cn1` [Example 288, (1R,2S,3S)-3-{5-(1-Methyl-1H-pyrazol-4-yl)-2-[3-(1-methyl-1H-pyrazol-4-yl)-phenyl]-pyrimidin-4-ylamino}-cycloheptane-1,2-diol], for which the IC50 (in assay [1]; on IRAK4; in assay [2]) was below 100 nM each time.
For `Cn1cc(-c2cccc(-c3ncc(-c4cnn(C)c4)c(N[C@@H]4CCCC[C@H](O)[C@@H]4O)n3)c2)cn1` [Example 289, (1S,2R,3R)-3-{5-(1-Methyl-1H-pyrazol-4-yl)-2-[3-(1-methyl-1H-pyrazol-4-yl)-phenyl]-pyrimidin-4-ylamino}-cycloheptane-1,2-diol], the IC50 in assay [1] was above 5000 nM; against IRAK4, below 100 nM; in assay [2] (Homo sapiens, PBMC) it was 100 to 1000 nM.
